This is an account of results in US8722674B2, “1,3,5-triazine-2,4,6-triamine compound or pharmaceutical acceptable salt thereof, and pharmaceutical composition comprising the same” (Hanall Biopharma Co., Ltd., priority 2007, dated 2014).

The term melting point denotes the temperature, or range, at which the solid turns liquid.

The subject of data set [1] is HepG2 cells. Briefly: Measurement of gluconeogenesis (14C-lactate). The format is cell-based. The conditions noted are these: Homo sapiens, 24 h treatment, lower is better, read-out: gluconeogenesis (glucose synthesis ability), % control. Here is the method:
(§1) Metformin that is widely used in type 2 diabetic patients inhibits the formation of glucose, the synthesis of cholesterol and triglyceride in liver cells and promote the absorption of glucose from blood vessels in the muscle cells. […] In the case of the ability to form cholesterol, triglyceride and glucose, the lower the numerical value, the better the effect. Numerical values for a control group become reference values.
As a hepatic cell model, HepG2 cells were cultured in 10% serum-containing high glucose media, and then treated with each of the compounds for 24 hours. Then, the cells were treated with 0.5 uCi 14C-lactate and 10 mM L-lactate, and cultured for 4 hours. After cultivation, the media of the cells were removed, and the cells were washed with PBS, treated with 0.1N NaOH and left to stand at room temperature for 1 hour. Then, the cells were neutralized with 1N HCl, and the amount of glucose formed in the cells was measured with a liquid scintillation counter. […] A lower measurement value means a stronger blood glucose lowering activity.

Another data set relates to C2C12 cells. Briefly: Measurement of glucose absorption (3H-deoxy-glucose). The format is cell-based.
From the text: as §1
As a muscle cell model, C2C12 cells were induced to differentiate into muscle cells in 2% bovine fetal serum for 6 days. The C2C12 cells which differentiated into muscle cells were treated with each of the compounds in serum-free low glucose media, and then cultured with 1 μM of insulin for 24 hours. After cultivation, the cells were treated with 1 μCi 3H-deoxy-glucose and 10 μM deoxy-glucose at 37° C. for 15 minutes. After treatment, the media were removed, and the cells were washed twice with PBS. The washed cells were treated with 0.1 N NaOH and neutralized with 1N HCl. The amount of glucose absorbed into the cells was measured with a liquid scintillation counter. The effect of the compounds was determined by selecting a compound showing an absorption effect of at least 200%, dividing the absorption effect by the average percent of the control group, and then multiplying the divided value by […]. A higher measurement value means a stronger ability to reduce insulin resistance.

The subject of data set [2] is HepG2 cells. Briefly: Measurement of triglyceride (Amplex red fluorescence). The format is cell-based. The conditions noted are these: Homo sapiens, 24 h treatment, lower is better, read-out: triglyceride synthesis ability, % control. Here is the method:
as §1
(§2) As a hepatic cell model, HepG2 cells were cultured in 1% serum-containing media for 24 hours, and then treated with each of the compounds for 24 hours. Then, the cells were disrupted with lysis buffer (0.1M potassium phosphate, pH 7.4, 0.05 M NaCl, 5 mM cholic acid, 0.1% Triton X-100). To the disrupted cells, the same volume of a reaction solution (0.76 U/ml glycerol kinase, 151333 U/ml peroxidase, 22.2 U/ml glycerol oxidizing agent, and 300 μM Amplex red as a fluorescent factor) was added and allowed to react at 37° C. for 30 minutes. After completion of the reaction, the cells were measured with a fluorometer at a wavelength of 560/590 nm (ex/em), thus quantifying the amount of triglyceride formed in the cells. A lower measurement value means an increased lipid production inhibitory ability.

Data set [3] deals with HepG2 cells. Briefly: Measurement of cholesterol synthesis ability (Amplex red fluorescence). The format is cell-based.
From the text: as §1
as §2, with “model, HepG2 cells were used to measure cholesterol synthesis inhibitory ability, which is the important function of AMPK. The hepatic cell model” for “model,”, “(0.1 M” for “(0.1M”, “(2” for “(0.76”, “cholesterol oxidizing agent, 2” for “glycerol kinase, 151333”, “0.2” for “22.2”, “cholesterol esterase,” for “glycerol oxidizing agent,”

Setting [4] is: Mus musculus, differentiated C2C12 muscle cells, with 1 μM insulin 24 h, higher is better, read-out: glucose absorption, % control.
The mark [5] stands for this setting: Homo sapiens, HepG2 cells, 24 h treatment, lower is better, read-out: cholesterol synthesis ability, % control.

The compound `CN(C)c1nc(N)nc(N(C)C)n1` [Example 10, N2,N2,N4,N4-tetramethyl-1,3,5-triazine-2,4,6-triamine] came in with a melting point of 227 to 228 °C. Moreover, the activity at 200 µM with HepG2 cells [1] was found to be 87.2%. The activity at 200 µM with C2C12 cells (setting [4]) worked out at 102%. For the same compound, the activity at 100 µM with HepG2 cells [2] was found to be 97%. Besides, in the data set on HepG2 cells [3] (setting [5]), the activity at 100 µM stood at 98.9%.
For the compound `CN(C)c1nc(N)nc(Nc2ccccc2O)n1` [Example 43, 2-(4-amino-6-(dimethylamino)-1,3,5-triazine-2-ylamino)phenol], the melting point fell in the range of 307 to 312 °C. Besides, the activity at 100 µM with HepG2 cells [1] was 83.5%. In addition, the activity at 100 µM in the data set with C2C12 cells (setting [4]) is 186%. In addition, the activity at 100 µM in the data set on HepG2 cells [2] turned out to be 77%. The activity at 100 µM in the data set on HepG2 cells [3] (setting [5]) amounted to 41.1%.
For `CCCc1ccccc1Nc1nc(N)nc(N(C)C)n1` [Example 26, N2,N2-dimethyl-N4-(2-propylphenyl)-1,3,5-triazine-2,4,6-triamine] the same measures were 130 to 145 °C, 24.7%, 170%, 38.6% and 62.9%.
For `CN(C)c1nc(N)nc(Nc2ccc3c(c2)CCC3)n1` [Example 23, N2-(2,3-dihydro-1H-inden-5-yl)-N4,N4-dimethyl-1,3,5-triazine-2,4,6-triamine] the same measures were 245 to 255 °C, 10.7%, 1.91%, 37.2% and 63%.
`CN(C)c1nc(N)nc(N2CCN(c3ccccc3)CC2)n1` [Example 39, N2,N2-dimethyl-6-(4-phenylpiperazin-1-yl)-1,3,5-triazine-2,4-diamine]: the melting point lay within 132 to 139 °C. In addition, the activity at 100 µM with HepG2 cells [1] is 77.4%. Also, the activity at 100 µM in the data set with C2C12 cells (setting [4]) was 115%. Also, in the data set on HepG2 cells [2], the activity at 100 µM amounted to 95.3%. Further, in the data set on HepG2 cells [3] (setting [5]), the activity at 100 µM was found to be 55.8%.
Regarding `Cc1ccc(CNc2nc(N)nc(N(C)C)n2)cc1` [Example 14, N2,N2-dimethyl-N4-(4-methylbenzyl)-1,3,5-triazine-2,4,6-triamine], the melting point lay within 139 to 143 °C. Also, the activity at 100 µM in the data set with HepG2 cells [1] was found to be 75.4%. In addition, in the data set on C2C12 cells (setting [4]), the activity at 100 µM worked out at 113%. Further, in the data set with HepG2 cells [2], the activity at 100 µM is 92%. The activity at 100 µM in the data set with HepG2 cells [3] (setting [5]) came out at 87.8%.
As to `CN(C)c1nc(N)nc(NCCN2CCOCC2)n1` [Example 3, N2,N2-dimethyl-N4-(2-morpholinoethyl)-1,3,5-triazine-2,4,6-triamine], the melting point fell in the range of 138.2 to 141.6 °C. Further, the activity at 500 µM in the data set on HepG2 cells [1] (500 uM) came out at 67.6%. In addition, the activity at 250 µM in the data set with C2C12 cells (Mus musculus, 250 uM, differentiated C2C12 muscle cells, with 1 μM insulin 24 h, higher is better, read-out: glucose absorption, % control) turned out to be 132%. In addition, the activity at 250 µM with HepG2 cells [2] (250 uM) came to 98%. For the same compound, in the data set with HepG2 cells [3] (Homo sapiens, 250 uM, HepG2 cells, 24 h treatment, lower is better, read-out: cholesterol synthesis ability, % control), the activity at 250 µM worked out at 113%.
`CN(C)c1nc(N)nc(Nc2ccccc2-c2ccccc2)n1` [Example 38, N2-(biphenyl-2-yl)-N4,N4-dimethyl-1,3,5-triazine-2,4,6-triamine] returned a melting point of 196 to 216 °C. In addition, in the data set with HepG2 cells [1], the activity at 100 µM is 13.8%. The activity at 100 µM in the data set with C2C12 cells (setting [4]) came out at 92.1%. Besides, the activity at 100 µM in the data set with HepG2 cells [2] came out at 63.3%. Further, the activity at 100 µM in the data set on HepG2 cells [3] (setting [5]) stood at 55.1%.
On the same counts, the results for `Cc1cccc(Nc2nc(N)nc(N(C)C)n2)c1` [Example 32, N2,N2-dimethyl-N4-m-tolyl-1,3,5-triazine-2,4,6-triamine] are 166 to 168 °C, 66.8%, 118%, 66.6% and 34.2%.
`CC(Nc1nc(N)nc(N(C)C)n1)c1cccc2ccccc12` (stereo not shown) [Example 21, N2,N2-dimethyl-N4-(1-(naphthalen-1-yl)ethyl)-1,3,5-triazine-2,4,6-triamine] displayed a melting point of 73 to 76 °C. Further, the activity at 100 µM in the data set with HepG2 cells [1] was 42.1%. Besides, the activity at 100 µM in the data set on C2C12 cells (setting [4]) is 140%. Moreover, the activity at 100 µM in the data set on HepG2 cells [2] amounted to 71%. Further, in the data set on HepG2 cells [3] (setting [5]), the activity at 100 µM turned out to be 56.6%.
Regarding `CN(C)c1nc(N)nc(Nc2ccc(Cl)cc2)n1` [Example 20, N2-(4-chlorophenyl)-N4,N4-dimethyl-1,3,5-triazine-2,4,6-triamine], the melting point lay within 164 to 167 °C. Further, the activity at 100 µM with HepG2 cells [1] amounted to 84.9%. For the same compound, the activity at 100 µM in the data set with C2C12 cells (setting [4]) came out at 132%. Besides, the activity at 100 µM with HepG2 cells [2] came out at 41.4%. In the data set with HepG2 cells [3] (setting [5]), the activity at 100 µM was found to be 56.3%.
In turn, `CN(C)c1nc(N)nc(Nc2ccc(F)cc2)n1` [Example 31, N2-(4-fluorophenyl)-N4,N4-dimethyl-1,3,5-triazine-2,4,6-triamine] gave a melting point of 182 to 199 °C. Besides, the activity at 100 µM in the data set on HepG2 cells [1] came to 80.7%. The activity at 100 µM in the data set on C2C12 cells (setting [4]) was determined as 131%. For the same compound, the activity at 100 µM in the data set with HepG2 cells [2] is 69.8%. Further, the activity at 100 µM in the data set on HepG2 cells [3] (setting [5]) was 67.2%.
On to `CN(C)c1nc(N)nc(NCc2ccoc2)n1` [Example 12, N2-(furan-3-ylmethyl)-N4,N4-dimethyl-1,3,5-triazine-2,4,6-triamine], for which the melting point lay within 151.6 to 152 °C. Besides, the activity at 200 µM in the data set with HepG2 cells [1] stood at 78.6%. Besides, the activity at 200 µM in the data set with C2C12 cells (setting [4]) came out at 180%. Moreover, the activity at 100 µM with HepG2 cells [2] came out at 87.7%. Further, in the data set on HepG2 cells [3] (setting [5]), the activity at 100 µM was 92.4%.
As for `CN(C)c1nc(N)nc(Nc2ccc3c(c2)-c2ccccc2C3)n1` [Example 25, N2-(9H-fluoren-3-yl)-N4,N4-dimethyl-1,3,5-triazine-2,4,6-triamine], the melting point was in the range of 282 to 290 °C. For the same compound, in the data set on HepG2 cells [1], the activity at 100 µM was determined as 49.5%. In addition, the activity at 100 µM in the data set with C2C12 cells (setting [4]) worked out at 107%. Further, in the data set with HepG2 cells [2], the activity at 100 µM came to 30.2%. For the same compound, the activity at 100 µM in the data set on HepG2 cells [3] (setting [5]) amounted to 76.8%. Moreover, in the data set on HepG2 cells [3] (by comparison of used amounts vs control group (metformin 2 mM)), the “effect on cholesterol synthesis, times better than the control group” value is “at least 20 times”.
Compound `CN(C)c1nc(N)nc(NC2CCCCC2)n1` [Example 41, N2-cyclohexyl-N4,N4-dimethyl-1,3,5-triazine-2,4,6-triamine] returned a melting point of 119 to 120 °C. Also, the activity at 100 µM in the data set on HepG2 cells [1] came out at 90.6%. In addition, the activity at 100 µM in the data set with C2C12 cells (setting [4]) was 263%. Also, in the data set on C2C12 cells (absorption effect divided by average percent of control group (metformin 2 mM), multiplied by 20), the “effect of reducing insulin resistance, times better than the control group” value is reported as “about 16 times”. In addition, the activity at 100 µM in the data set on HepG2 cells [2] is 90.9%. Moreover, in the data set on HepG2 cells [3] (setting [5]), the activity at 100 µM was 70.8%.
Turning to `CN(C)c1nc(N)nc(N)n1` [Example 11, N2,N2-dimethyl-1,3,5-triazine-2,4,6-triamine], the melting point lay in the range of 271.8 to 272.8 °C. Also, in the data set on HepG2 cells [1], the activity at 200 µM amounted to 70.4%. Further, the activity at 200 µM in the data set on C2C12 cells (setting [4]) came out at 106%. In the data set on HepG2 cells [2], the activity at 100 µM was 97.6%. The activity at 100 µM in the data set on HepG2 cells [3] (setting [5]) was determined as 97.7%.
